Results: patent publication US9340590B2 (priority 2011, dated 2016)
Positions of bridges follow the written chain, without caps; N, C: chain ends. Non-standard residues stand in square brackets, D forms with d. Residues, ends and D or L forms follow the SMILES beside them. Phe(4-COOH) = N[C@@H](Cc1ccc(C(=O)O)cc1)C(=O)O; Trp(1-Me) = Cn1cc(C[C@H](N)C(=O)O)c2ccccc21; 2Pal = N[C@@H](Cc1ccccn1)C(=O)O; 3Pal = N[C@@H](Cc1cccnc1)C(=O)O

Experiments:
hNav1.5 = hNav1.5 (Homo sapiens, UniProt Q14524); test: cell-based
hNav1.7 = hNav1.7 (Homo sapiens, UniProt Q15858); test: cell-based; settings: Nav1.7 Use IC50
hNav1.7, sequence (Q15858 whole entry, looked up): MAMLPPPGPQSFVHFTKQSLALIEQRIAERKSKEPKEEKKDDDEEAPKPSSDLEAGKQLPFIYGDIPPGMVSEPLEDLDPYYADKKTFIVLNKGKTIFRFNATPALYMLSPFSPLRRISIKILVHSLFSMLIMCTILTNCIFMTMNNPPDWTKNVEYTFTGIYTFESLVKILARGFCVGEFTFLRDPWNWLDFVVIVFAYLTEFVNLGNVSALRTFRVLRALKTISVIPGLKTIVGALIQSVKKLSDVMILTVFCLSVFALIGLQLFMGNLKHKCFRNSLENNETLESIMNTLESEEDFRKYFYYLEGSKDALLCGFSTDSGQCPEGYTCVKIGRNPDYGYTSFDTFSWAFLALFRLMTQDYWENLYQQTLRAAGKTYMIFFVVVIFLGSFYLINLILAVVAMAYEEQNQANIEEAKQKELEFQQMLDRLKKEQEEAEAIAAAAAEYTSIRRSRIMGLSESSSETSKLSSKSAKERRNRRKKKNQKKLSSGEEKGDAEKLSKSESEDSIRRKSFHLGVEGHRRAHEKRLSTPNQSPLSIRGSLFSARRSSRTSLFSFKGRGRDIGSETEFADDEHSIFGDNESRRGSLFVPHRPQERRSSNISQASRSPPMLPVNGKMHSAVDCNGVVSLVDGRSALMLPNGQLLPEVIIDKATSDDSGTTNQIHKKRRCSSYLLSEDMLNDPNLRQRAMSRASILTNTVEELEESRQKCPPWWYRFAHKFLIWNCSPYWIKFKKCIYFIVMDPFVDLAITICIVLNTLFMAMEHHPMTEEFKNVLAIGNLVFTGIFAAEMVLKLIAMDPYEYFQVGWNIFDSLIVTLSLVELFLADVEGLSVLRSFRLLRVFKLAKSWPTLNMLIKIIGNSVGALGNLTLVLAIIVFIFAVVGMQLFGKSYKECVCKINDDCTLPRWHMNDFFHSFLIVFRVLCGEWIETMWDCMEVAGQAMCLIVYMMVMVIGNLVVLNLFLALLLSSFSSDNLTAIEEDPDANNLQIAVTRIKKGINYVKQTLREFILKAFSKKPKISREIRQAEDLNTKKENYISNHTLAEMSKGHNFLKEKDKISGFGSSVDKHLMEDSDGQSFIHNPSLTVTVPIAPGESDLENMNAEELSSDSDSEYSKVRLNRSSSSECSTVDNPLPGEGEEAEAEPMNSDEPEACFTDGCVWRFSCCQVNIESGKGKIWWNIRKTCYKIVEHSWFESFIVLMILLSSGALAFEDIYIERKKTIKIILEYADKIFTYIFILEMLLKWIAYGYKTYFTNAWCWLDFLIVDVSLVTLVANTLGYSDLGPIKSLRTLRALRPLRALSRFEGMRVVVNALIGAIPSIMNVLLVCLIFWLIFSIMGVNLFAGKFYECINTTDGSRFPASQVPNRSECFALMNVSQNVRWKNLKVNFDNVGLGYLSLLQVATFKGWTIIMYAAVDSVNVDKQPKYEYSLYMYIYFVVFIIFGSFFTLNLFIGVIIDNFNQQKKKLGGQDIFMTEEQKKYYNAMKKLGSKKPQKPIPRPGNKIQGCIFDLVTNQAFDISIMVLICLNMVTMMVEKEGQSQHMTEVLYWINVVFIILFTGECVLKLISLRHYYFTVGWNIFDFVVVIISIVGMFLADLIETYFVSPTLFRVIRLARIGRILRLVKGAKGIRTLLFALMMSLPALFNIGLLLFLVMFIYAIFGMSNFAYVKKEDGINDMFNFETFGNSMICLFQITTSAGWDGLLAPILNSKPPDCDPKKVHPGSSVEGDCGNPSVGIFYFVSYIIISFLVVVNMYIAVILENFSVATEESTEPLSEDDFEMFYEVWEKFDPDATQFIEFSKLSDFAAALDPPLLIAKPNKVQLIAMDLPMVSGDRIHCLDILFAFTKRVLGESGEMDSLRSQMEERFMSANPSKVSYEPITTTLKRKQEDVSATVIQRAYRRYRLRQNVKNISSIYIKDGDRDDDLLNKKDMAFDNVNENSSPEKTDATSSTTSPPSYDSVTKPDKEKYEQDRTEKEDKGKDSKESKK

hNav1.5, sequence (Q14524 whole entry, looked up): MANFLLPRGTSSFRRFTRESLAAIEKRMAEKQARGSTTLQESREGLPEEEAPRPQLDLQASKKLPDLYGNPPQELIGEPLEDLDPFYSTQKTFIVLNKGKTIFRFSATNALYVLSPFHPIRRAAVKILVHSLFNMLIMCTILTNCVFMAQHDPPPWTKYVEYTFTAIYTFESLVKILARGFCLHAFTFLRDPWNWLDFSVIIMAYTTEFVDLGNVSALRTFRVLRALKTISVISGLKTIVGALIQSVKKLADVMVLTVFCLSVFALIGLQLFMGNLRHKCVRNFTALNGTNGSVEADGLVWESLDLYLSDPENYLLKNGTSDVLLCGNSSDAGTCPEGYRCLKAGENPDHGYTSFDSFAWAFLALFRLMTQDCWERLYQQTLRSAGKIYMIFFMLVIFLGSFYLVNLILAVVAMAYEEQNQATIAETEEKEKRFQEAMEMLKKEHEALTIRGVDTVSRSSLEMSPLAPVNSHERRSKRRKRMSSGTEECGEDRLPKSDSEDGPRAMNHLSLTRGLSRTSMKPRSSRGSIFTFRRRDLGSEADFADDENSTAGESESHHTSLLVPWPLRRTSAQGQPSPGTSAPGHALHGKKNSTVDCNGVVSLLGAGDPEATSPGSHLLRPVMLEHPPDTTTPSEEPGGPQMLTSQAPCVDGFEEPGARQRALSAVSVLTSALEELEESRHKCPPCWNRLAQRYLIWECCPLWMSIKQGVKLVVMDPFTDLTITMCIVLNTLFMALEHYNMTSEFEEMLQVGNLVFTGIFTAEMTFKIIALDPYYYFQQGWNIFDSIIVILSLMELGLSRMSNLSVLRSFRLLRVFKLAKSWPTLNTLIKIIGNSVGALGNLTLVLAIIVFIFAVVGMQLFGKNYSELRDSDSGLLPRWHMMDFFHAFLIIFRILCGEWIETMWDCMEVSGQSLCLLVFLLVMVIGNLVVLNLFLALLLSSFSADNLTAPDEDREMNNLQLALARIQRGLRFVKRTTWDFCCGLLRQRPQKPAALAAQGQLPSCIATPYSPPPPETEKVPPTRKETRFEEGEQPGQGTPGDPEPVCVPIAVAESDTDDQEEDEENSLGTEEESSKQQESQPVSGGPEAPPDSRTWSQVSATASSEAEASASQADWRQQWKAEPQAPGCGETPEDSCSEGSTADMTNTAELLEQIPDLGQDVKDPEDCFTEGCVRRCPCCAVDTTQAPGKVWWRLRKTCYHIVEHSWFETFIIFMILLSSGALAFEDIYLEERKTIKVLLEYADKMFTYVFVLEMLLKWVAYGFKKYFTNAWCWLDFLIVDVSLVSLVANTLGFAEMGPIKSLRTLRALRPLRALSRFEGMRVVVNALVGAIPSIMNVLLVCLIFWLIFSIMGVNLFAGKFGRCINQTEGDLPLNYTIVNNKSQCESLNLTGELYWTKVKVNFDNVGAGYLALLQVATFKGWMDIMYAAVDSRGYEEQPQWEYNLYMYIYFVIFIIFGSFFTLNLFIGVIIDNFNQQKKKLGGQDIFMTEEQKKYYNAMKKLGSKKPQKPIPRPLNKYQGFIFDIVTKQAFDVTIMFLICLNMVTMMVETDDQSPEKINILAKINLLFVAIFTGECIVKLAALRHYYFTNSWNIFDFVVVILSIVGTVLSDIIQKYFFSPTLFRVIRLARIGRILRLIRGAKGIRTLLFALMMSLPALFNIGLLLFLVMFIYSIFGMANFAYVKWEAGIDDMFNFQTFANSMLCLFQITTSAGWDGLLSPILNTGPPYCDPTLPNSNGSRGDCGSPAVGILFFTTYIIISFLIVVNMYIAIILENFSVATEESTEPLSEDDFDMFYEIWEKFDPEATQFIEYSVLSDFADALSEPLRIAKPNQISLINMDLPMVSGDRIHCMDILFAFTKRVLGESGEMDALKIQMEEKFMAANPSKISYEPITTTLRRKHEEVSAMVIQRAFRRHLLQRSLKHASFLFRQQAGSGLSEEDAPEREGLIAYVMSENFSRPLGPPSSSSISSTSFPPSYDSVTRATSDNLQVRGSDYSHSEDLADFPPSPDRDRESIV

Structure (SMILES)	IC50 (hNav1.5) [µM]	IC50 (hNav1.7) [µM]
CC[C@H](C)[C@@H]1NC(=O)[C@@H]2CSSC[C@@H]3NC(=O)[C@H](C(C)C)NC(=O)[C@H](CC(C)C)NC(=O)[C@H](CC(N)=O)NC(=O)[C@@H]4CCCN4C(=O)[C@H](CCCNC(=N)N)NC(=O)[C@H](CSSC[C@H](NC(=O)[C@@H](N)CC(=O)O)C(=O)N[C@@H](CC(C)C)C(=O)NCC(=O)N[C@@H](Cc4ccccc4)C(=O)N[C@@H](CCSC)C(=O)N[C@@H](CCCNC(=N)N)C(=O)N[C@@H](CCCCN)C(=O)N2)NC(=O)[C@H](CSSC[C@@H](C(=O)N[C@@H](CCCCN)C(=O)N[C@@H](Cc2ccc(O)cc2)C(=O)N[C@@H](Cc2ccccn2)C(=O)N[C@@H](Cc2ccccc2)C(N)=O)NC(=O)[C@H](Cc2c[nH]c4ccccc24)NC(=O)[C@H](CCCCN)NC(=O)[C@H](Cc2c[nH]cn2)NC(=O)[C@H]([C@@H](C)O)NC(=O)[C@H](CCCNC(=N)N)NC(=O)[C@H](CO)NC3=O)NC(=O)[C@H](CCCCN)NC(=O)[C@H](CC(=O)O)NC(=O)[C@H](CC(N)=O)NC(=O)[C@H](CC(=O)O)NC(=O)[C@@H]2CCCN2C1=O [[2PAL33]GpTx-1(1-34)] (H-DCLGFMRKCIPDNDKCCRPNLVCSRTHKWCKY[2Pal]F-NH2; disulfide 2-17, 9-23, 16-30)	3.46	0.01
CC[C@H](C)[C@@H]1NC(=O)[C@@H]2CSSC[C@@H]3NC(=O)[C@H](C(C)C)NC(=O)[C@H](CC(C)C)NC(=O)[C@H](CC(N)=O)NC(=O)[C@@H]4CCCN4C(=O)[C@H](CCCNC(=N)N)NC(=O)[C@H](CSSC[C@H](NC(=O)[C@@H](N)CC(=O)O)C(=O)N[C@@H](CC(C)C)C(=O)NCC(=O)N[C@@H](Cc4cccnc4)C(=O)N[C@@H](Cc4ccccc4)C(=O)N[C@@H](CCCNC(=N)N)C(=O)N[C@@H](CCCCN)C(=O)N2)NC(=O)[C@H](CSSC[C@@H](C(=O)N[C@@H](CCCCN)C(=O)N[C@@H](Cc2ccc(O)cc2)C(=O)N[C@H](C(=O)N[C@@H](Cc2ccccc2)C(N)=O)C(C)C)NC(=O)[C@H](Cc2c[nH]c4ccccc24)NC(=O)[C@H](CCCCN)NC(=O)[C@H](Cc2c[nH]cn2)NC(=O)[C@H]([C@@H](C)O)NC(=O)[C@H](CCCNC(=N)N)NC(=O)[C@H](CO)NC3=O)NC(=O)[C@H](CCCCN)NC(=O)[C@H](CC(=O)O)NC(=O)[C@H](CC(N)=O)NC(=O)[C@H](CC(=O)O)NC(=O)[C@@H]2CCCN2C1=O [[3Pal5;Phe6]GpTx-1(1-34)] (H-DCLG[3Pal]FRKCIPDNDKCCRPNLVCSRTHKWCKYVF-NH2; disulfide 2-17, 9-23, 16-30)	> 10	0.063
CC[C@H](C)[C@@H]1NC(=O)[C@@H]2CSSC[C@@H]3NC(=O)[C@H](C(C)C)NC(=O)[C@H](CC(C)C)NC(=O)[C@H](CC(N)=O)NC(=O)[C@@H]4CCCN4C(=O)[C@H](CCCNC(=N)N)NC(=O)[C@H](CSSC[C@H](NC(=O)[C@@H](N)CC(=O)O)C(=O)N[C@@H](CC(C)C)C(=O)NCC(=O)N[C@@H](Cc4ccccc4)C(=O)N[C@@H](CCSC)C(=O)N[C@@H](CCCNC(=N)N)C(=O)N[C@@H](CCCCN)C(=O)N2)NC(=O)[C@H](CSSC[C@@H](C(=O)N[C@@H](CCCCN)C(=O)N[C@@H](Cc2ccc(O)cc2)C(=O)N[C@H](C(=O)N[C@@H](Cc2ccccc2)C(N)=O)C(C)C)NC(=O)[C@H](Cc2c[nH]c4ccccc24)NC(=O)[C@H](CCCCN)NC(=O)[C@H](Cc2c[nH]cn2)NC(=O)[C@H](Cc2ccc(C(=O)O)cc2)NC(=O)[C@H](CCCNC(=N)N)NC(=O)[C@H](CO)NC3=O)NC(=O)[C@H](CCCCN)NC(=O)[C@H](CC(=O)O)NC(=O)[C@H](CC(N)=O)NC(=O)[C@H](CC(=O)O)NC(=O)[C@@H]2CCCN2C1=O [[4CO2-F26]GpTx-1(1-34)] (H-DCLGFMRKCIPDNDKCCRPNLVCSR[Phe(4-COOH)]HKWCKYVF-NH2; disulfide 2-17, 9-23, 16-30)	> 10	0.065
CC[C@H](C)[C@@H]1NC(=O)[C@@H]2CSSC[C@@H]3NC(=O)[C@H](C(C)C)NC(=O)[C@H](CC(C)C)NC(=O)[C@H](CC(N)=O)NC(=O)[C@@H]4CCCN4C(=O)[C@H](CCCNC(=N)N)NC(=O)[C@H](CSSC[C@H](NC(=O)[C@@H](N)CC(=O)O)C(=O)N[C@@H](CC(C)C)C(=O)NCC(=O)N[C@@H](Cc4ccccc4)C(=O)N[C@@H](CCSC)C(=O)N[C@@H](CCCNC(=N)N)C(=O)N[C@@H](CCCCN)C(=O)N2)NC(=O)[C@H](CSSC[C@@H](C(=O)N[C@@H](CCCCN)C(=O)N[C@@H](Cc2ccc(O)cc2)C(=O)N[C@@H](Cc2ccc(C(=O)O)cc2)C(=O)N[C@@H](Cc2ccccc2)C(N)=O)NC(=O)[C@H](Cc2c[nH]c4ccccc24)NC(=O)[C@H](CCCCN)NC(=O)[C@H](Cc2c[nH]cn2)NC(=O)[C@H]([C@@H](C)O)NC(=O)[C@H](CCCNC(=N)N)NC(=O)[C@H](CO)NC3=O)NC(=O)[C@H](CCCCN)NC(=O)[C@H](CC(=O)O)NC(=O)[C@H](CC(N)=O)NC(=O)[C@H](CC(=O)O)NC(=O)[C@@H]2CCCN2C1=O [[4CO2-F33]GpTx-1(1-34)] (H-DCLGFMRKCIPDNDKCCRPNLVCSRTHKWCKY[Phe(4-COOH)]F-NH2; disulfide 2-17, 9-23, 16-30)	> 10	0.003
CC[C@H](C)[C@@H]1NC(=O)[C@@H]2CSSC[C@@H]3NC(=O)[C@H](C(C)C)NC(=O)[C@H](CC(C)C)NC(=O)[C@H](CC(N)=O)NC(=O)[C@@H]4CCCN4C(=O)[C@H](CCCNC(=N)N)NC(=O)[C@H](CSSC[C@H](NC(=O)[C@@H](N)CC(=O)O)C(=O)N[C@@H](CC(C)C)C(=O)NCC(=O)NC(C)(C)C(=O)N[C@@H](CC(C)C)C(=O)N[C@@H](CCCNC(=N)N)C(=O)N[C@@H](CCCCN)C(=O)N2)NC(=O)[C@H](CSSC[C@@H](C(=O)N[C@@H](CCCCN)C(=O)N[C@@H](Cc2ccc(O)cc2)C(=O)N[C@H](C(=O)N[C@@H](Cc2ccccc2)C(N)=O)C(C)C)NC(=O)[C@H](Cc2c[nH]c4ccccc24)NC(=O)[C@H](CCCCN)NC(=O)[C@H](Cc2c[nH]cn2)NC(=O)[C@H]([C@@H](C)O)NC(=O)[C@H](CCCNC(=N)N)NC(=O)[C@H](CO)NC3=O)NC(=O)[C@H](CCCCN)NC(=O)[C@H](CC(=O)O)NC(=O)[C@H](CC(N)=O)NC(=O)[C@H](CC(=O)O)NC(=O)[C@@H]2CCCN2C1=O [[Aib5;Leu6]GpTx-1(1-34)]	> 10	0.02
CC[C@H](C)[C@@H]1NC(=O)[C@@H]2CSSC[C@@H]3NC(=O)[C@H](C(C)C)NC(=O)[C@H](CC(C)C)NC(=O)[C@H](CC(N)=O)NC(=O)[C@@H]4CCCN4C(=O)[C@H](CCCNC(=N)N)NC(=O)[C@H](CSSC[C@H](NC(=O)[C@@H](N)CC(=O)O)C(=O)N[C@@H](CC(C)C)C(=O)NCC(=O)N[C@@H](C)C(=O)N[C@@H](Cc4ccccc4)C(=O)N[C@@H](CCCNC(=N)N)C(=O)N[C@@H](CCCCN)C(=O)N2)NC(=O)[C@H](CSSC[C@@H](C(=O)N[C@@H](CCCCN)C(=O)N[C@@H](Cc2ccc(O)cc2)C(=O)N[C@H](C(=O)N[C@@H](Cc2ccccc2)C(N)=O)C(C)C)NC(=O)[C@H](Cc2c[nH]c4ccccc24)NC(=O)[C@H](CCCCN)NC(=O)[C@H](Cc2c[nH]cn2)NC(=O)[C@H]([C@@H](C)O)NC(=O)[C@H](C)NC(=O)[C@H](CO)NC3=O)NC(=O)[C@H](CCCCN)NC(=O)[C@H](CC(=O)O)NC(=O)[C@H](CC(N)=O)NC(=O)[C@H](CC(=O)O)NC(=O)[C@@H]2CCCN2C1=O [[Ala5,25;Phe6]GpTx-1(1-34)] (H-DCLGAFRKCIPDNDKCCRPNLVCSATHKWCKYVF-NH2; disulfide 2-17, 9-23, 16-30)	> 10	0.086
CC[C@H](C)[C@@H]1NC(=O)[C@@H]2CSSC[C@@H]3NC(=O)[C@H](C(C)C)NC(=O)[C@H](CC(C)C)NC(=O)[C@H](CC(N)=O)NC(=O)[C@@H]4CCCN4C(=O)[C@H](CCCNC(=N)N)NC(=O)[C@H](CSSC[C@H](NC(=O)[C@@H](N)CC(=O)O)C(=O)N[C@@H](CC(C)C)C(=O)NCC(=O)N[C@@H](C)C(=O)N[C@@H](Cc4cn(C)c5ccccc45)C(=O)N[C@@H](CCCNC(=N)N)C(=O)N[C@@H](CCCCN)C(=O)N2)NC(=O)[C@H](CSSC[C@@H](C(=O)N[C@@H](CCCCN)C(=O)N[C@@H](Cc2ccc(O)cc2)C(=O)N[C@H](C(=O)N[C@@H](Cc2ccccc2)C(N)=O)C(C)C)NC(=O)[C@H](Cc2c[nH]c4ccccc24)NC(=O)[C@H](CCCCN)NC(=O)[C@H](Cc2c[nH]cn2)NC(=O)[C@H]([C@@H](C)O)NC(=O)[C@H](CCCNC(=N)N)NC(=O)[C@H](CO)NC3=O)NC(=O)[C@H](CCCCN)NC(=O)[C@H](CC(=O)O)NC(=O)[C@H](CC(N)=O)NC(=O)[C@H](CC(=O)O)NC(=O)[C@@H]2CCCN2C1=O [[Ala5;1′NMeW6]GpTx-1(1-34)]	> 10	0.051
CC[C@H](C)[C@@H]1NC(=O)[C@@H]2CSSC[C@@H]3NC(=O)[C@H](C(C)C)NC(=O)[C@H](CC(C)C)NC(=O)[C@H](CC(N)=O)NC(=O)[C@@H]4CCCN4C(=O)[C@H](CCCNC(=N)N)NC(=O)[C@H](CSSC[C@H](NC(=O)[C@@H](N)CC(=O)O)C(=O)N[C@@H](CC(C)C)C(=O)NCC(=O)N[C@@H](C)C(=O)N[C@@H](CCSC)C(=O)N[C@@H](CCCNC(=N)N)C(=O)N[C@@H](CCCCN)C(=O)N2)NC(=O)[C@H](CSSC[C@@H](C(=O)N[C@@H](CCCCN)C(=O)N[C@@H](Cc2cn(C)c4ccccc24)C(=O)N[C@H](C(=O)N[C@@H](Cc2ccccc2)C(N)=O)C(C)C)NC(=O)[C@H](Cc2c[nH]c4ccccc24)NC(=O)[C@H](CCCCN)NC(=O)[C@H](Cc2c[nH]cn2)NC(=O)[C@H]([C@@H](C)O)NC(=O)[C@H](CCCNC(=N)N)NC(=O)[C@H](CO)NC3=O)NC(=O)[C@H](CCCCN)NC(=O)[C@H](CC(=O)O)NC(=O)[C@H](CC(N)=O)NC(=O)[C@H](CC(=O)O)NC(=O)[C@@H]2CCCN2C1=O [[Ala5;1′NMeW32]GpTx-1(1-34)] (H-DCLGAMRKCIPDNDKCCRPNLVCSRTHKWCK[Trp(1-Me)]VF-NH2; disulfide 2-17, 9-23, 16-30)	> 10	0.018
